Measured values from patent US20060089260A1, “Nitrification inhibitor treatment of grazed pasture soils” (priority 2002, published 2006).
Several values for one entry are separate records, joined by “and”; a condition that tells them apart may be missing. Identical values can stand only once.

Columns and labels:
[1] = system: nitrification in soil (oxidation of NH4+ to NO2−); assay: Nitrous oxide emissions from urine-treated lysimeters, closed chamber method; settings: for Total nitrous oxide emission: urine + DCD, standard error of the mean in brackets; for Nitrous oxide (N2O) emissions: with DCD
Description: Nitrous oxide emissions from two treatments were determined using a closed chamber method. The enclosed chamber was fitted on top of the lysimeters inside a rubber ring on top of the lysimeter casing. At each sampling time, 3 samples, 10-15 minutes apart, were taken. Nitrous oxide was analysed using gas chromatography and daily N2O fluxes were calculated based on daily mean temperatures.

nitrification in soil [2] = settings: cited from earlier work
[3] = system: nitrification in soil (oxidation of NH4+ to NO2−); assay: Lysimeter study of NO3−-N leaching from grazed dairy pasture soil (Lismore stony silt loam); settings: for Total annual NO3−-N leaching loss: lysimeter
Description: (§1) Lysimeter studies, which are state-of-the-art technology for these investigations, have shown the effectiveness of a nitrification inhibitor, dicyandiamide (DCD), in reducing NO3^−—N leaching from a grazed dairy pasture under irrigation. This example used a free-draining Lismore stony silt loam (Udic Haplustept loamy skeletal) and the pasture was a mixture of perennial ryegrass (Lolium perenne) and white clover (Tifolium repens) but the process is applicable to all temperate soils and animal grazing systems.
(§2) Undisturbed soil monolith lysimeters, 50 cm diameter and 70 cm deep, were collected following well-established protocols and procedures that ensure there is minimal disturbance to the soil structure inside. The lysimeters were transported to a lysimeter facility near Lincoln University, using a specially designed trailer with air-bag suspension to minimize disturbance. The gap between the soil core and the metal casing was sealed using petroleum jelly to stop edge-flow effects. The lysimeters were then installed in the field lysimeter facility with the surface of the lysimeters at the same level as that of the surrounding soil surface, in order to maintain normal plant growing conditions.
(§3) Each treatment had 4 replicates. The treatments were allocated to the lysimeters in a randomised design. The urea application rate of 200 kg N ha^−1 y^−1 was at the higher end of fertilizer N application rates for most farmers in the region. The rates of urea were either split into 8 applications to maximize N efficiency, or 4 applications as a cost cutting measure (i.e. reducing application costs). Urine was applied either in the spring (November) or in the autumn (April) to simulate urine patches deposited in the spring or autumn by a grazing dairy cow. The urine application rate of 1000 kg N ha^−1 was equivalent to the typical N loading rate under a cow urine patch. The combination of urea with urine treatments was included to represent a situation where urea was applied throughout the paddock, and patches of the paddock received cow urine. Two rates of phosphate (P) fertilizer were applied, 45 or 90 kg P ha^−1 y^−1, to represent the range of P application rates used by local dairy farmers. As the purpose of this study was to determine the effectiveness of DCD in reducing NO3^− leaching from grazed pasture soil including cow urine patch areas, DCD was either applied or withheld. The DCD was applied in a liquid form to simulate application in the irrigation water on irrigated dairy farms or by spray vehicle.
Urea was applied in solid form and was broadcast over the surface of the lysimeters followed by 10 mm of irrigation.
Fresh urine was collected early in the morning during the milking session from Friesian cows, and was analysed and applied to the lysimeters on the same day.
(§4) DCD was applied in solution form (100 mL per lysimeter) at the rates of 7.5 kg ha^−1 after each urea application in the same day, or 15 kg ha^−1 immediately after each urine application. The DCD solution was sprayed onto the lysimeters with a watering can, simulating an application by an irrigator or spray vehicle.
(§5) From November to April (late spring to mid autumn), flood irrigation, at 100 mm, was applied to all the lysimeters at about three weekly intervals. The amount of water applied was to represent the average amount of water applied on commercial flood-irrigated dairy farms. Irrigation water was applied using an electronically controlled metering system to deliver the required volume of water to the lysimeters. From May to October (late autumn to mid spring), simulated rainfall was applied at the end of each month (if necessary), to supplement the natural rainfall received in order to equal the 75th percentile of local rainfall records for the same period of the year. This was done to create a so-called ‘worst case scenario’ in terms of rainfall inputs and to ensure a standard condition was achieved.

[4] = system: nitrification in soil (oxidation of NH4+ to NO2−); assay: Potassium, calcium and magnesium leaching losses, paddock-averaged; settings: calculated paddock average
Description: as §1, §2, §3, §4, §5

nitrification in soil [5] = settings: cited from earlier work; remark: listed apart in the source
[6] = system: pasture, mixture of perennial ryegrass (Lolium perenne) and white clover (Tifolium repens); assay: Lysimeter study of pasture yield and pasture N off-take; settings: for Increase in pasture yields: lysimeters
Description: as §1, §3, §4
The herbage was cut periodically to simulate typical grazing practice. All the harvested herbage was removed and dry matter yield recorded. Herbage nitrogen content was analysed. Following each herbage cut, a specially designed mechanical cow hoof was used to simulate cow treading on the lysimeters. The mechanical hoof is made of stainless steel with identical shape and size as an adult Friesian cow hoof. The hoof is mounted onto a compressed air-ram, which is driven by an air compressor system to provide a treading pressure of 220 kPa to simulate the treading pressure exerted by a cow's hoof during walking. The entire surface of the lysimeters was trodden once following each herbage cut. This was based on the inventors observation of hoof print coverage following each grazing rotation.

grazed dairy pasture = assay: Field plot experiment on Temuka soil, pasture response to DCD; settings: for Pasture yield: with DCD applied
Description: A field plot experiment was established on a Temuka soil on the Lincoln University Dairy farm to determine pasture response to DCD applications. A total of six plots, each 100 m^2 in area were set up. Fresh cow urine was collected from dairy cows and was analysed for N concentration. The urine was then applied to eight areas (0.2 m^2 each) within each plot to simulate urine patches deposited by the grazing cow. Urea was applied to the plots as per the rest of the farm at 200 kg N/ha. Phosphate fertilizer (superphosphate) was applied at 45 kg P/ha per year as per the rest of the dairy farm.
Three of the plots received the DCD treatment DCD was applied in a solution form to the whole area of each plot by spray equipment similar to those used to spray other agrochemicals. The DCD was applied twice each year (one in the autumn (May) and one in the spring (August)) at 10-15 kg/ha for each application.
Spray irrigation was applied between spring and autumn when necessary through a central pivot irrigator as per the rest of the dairy farm. Pasture from the simulated urine patch areas and from adjacent non-urine patch areas was cut and removed. Following the pasture cut, the plots were then grazed by dairy cows.
Dry matter yield was recorded from the urine patch and non-urine patch areas (Table 2). Pasture yield was calculated at the paddock scale as described above (Table 2).

Q: For `N#CN=C(N)N` [DCD, dicyandiamide], which “Total nitrous oxide emission” value ([1]; autumn application, 26.7 (5.9) without DCD) is on record?
A: Its value is 7.0 (2.3) kg N2O/ha.

Q: And the “Total nitrous oxide emission” value ([1]; spring application, 18.0 (2.9) without DCD)?
A: The value was 4.5 (0.7) kg N2O/ha.

Q: What about the “Nitrous oxide (N2O) emissions” value ([1]; spring urine application, 18.0 without DCD) of the same compound?
A: The value was 4.5 kg N2O—N ha−1.

Q: And the “Nitrous oxide (N2O) emissions” value ([1]; urine application in autumn, 26.7 without DCD)?
A: Its value is 7.0 kg N2O—N.

Q: And the “Response in pasture yield or N uptake to DCD application” value (nitrification in soil [2]; dairy cattle urine patches, field)?
A: The value was “no significant response”.

Q: And the “Effect on nitrification rate in the soil” value (nitrification in soil [2]; measured in the field)?
A: The value was “slowed down the nitrification rate in the soil”.

Q: What about the “Reduction of NO3−-N leaching, annual average” value ([3]; average of autumn and spring urine) of the same compound?
A: The value was 59%.

Q: What about the “Paddock averaged NO3−-N concentration in the drainage water” value ([3]; calculated paddock average, urea 200 + grazing, urine patches 25% of paddock, DCD applied) of the same compound?
A: Its value is 7.7 mg N L−1.

Q: What about the “Leaching losses from paddock (annual NO3−-N)” value ([3]; calculated paddock average, urea 200 kg N ha−1 y−1 + grazing, urine patches 25% of paddock (3 cows per ha), DCD applied) of the same compound?
A: The value was 46 kg N ha−1 y−1 and 46.1 kg N ha−1 y−1.

Q: And the “Total annual NO3−-N leaching loss” value ([3]; autumn urine, P 90 treatment, with DCD (Treatment 6), 488 without DCD)?
A: Its value is 112 kg N ha−1 y−1.

Q: And the “Total annual NO3−-N leaching loss” value ([3]; urine 1000 kg N ha−1 applied in autumn, with DCD (Treatment 4), 516 without DCD)?
A: Its value is 128 kg N ha−1 y−1.

Q: What about the “Total annual NO3−-N leaching loss” value ([3]; urine applied in spring, with DCD (Treatment 8), 397 without DCD) of the same compound?
A: Its value is 230 kg N ha−1 y−1.

Q: What about the “Reductions in the amount of urine N leached” value ([3]; span spring to autumn urine application) of the same compound?
A: Its value is 42.1-76.1%.

Q: What about the “Reduction of NO3−-N leaching” value ([3]; urine-N applied in the autumn, average) of the same compound?
A: The value was 76% and 76.1%.

Q: What about the “Reduction of NO3−-N leaching” value ([3]; urine-N applied in the spring) of the same compound?
A: The value was 42% and 42.1%.

Q: What about the “% decrease due to DCD, calcium (Ca2+) leaching” value [4] of the same compound?
A: The value was 50%.

Q: What about the “% decrease due to DCD, magnesium (Mg2+) leaching” value [4] of the same compound?
A: Its value is 52%.

Q: What about the “% decrease due to DCD, potassium (K+) leaching” value [4] of the same compound?
A: Its value is 65%.

Q: And the “Leaching losses of magnesium (Mg2+), with DCD” value ([4]; 25% of area urine patches, 17 without DCD)?
A: The value was 8 kg ha−1y−1.

Q: What about the “Leaching losses of potassium (K+), with DCD” value ([4]; 25% of area urine patches, 48 without DCD) of the same compound?
A: The value was 17 kg ha−1y−1.

Q: What about the “Leaching losses of calcium (Ca2+), with DCD” value ([4]; 25% of area urine patches, 213 without DCD) of the same compound?
A: Its value is 107 kg ha−1y−1.

Q: What about the “Reduction in N leached achieved by applying DCD” value (nitrification in soil [5]; DCD added to dairy farm effluent, repeated, high effluent-N loadings during winter) of the same compound?
A: Its value is “not sufficient to avert high N losses and environmental damage”.

Q: What about the “Reduction in the amount of NO3−-N leached” value (nitrification in soil [5]; DCD combined with farm dairy effluent (dirty water)) of the same compound?
A: Its value is 18%.

Q: And the “Increase in pasture N off-take” value ([6]; autumn urine treatments)?
A: Its value is 23%.

Q: What about the “Increase in pasture N off-take, annual average” value ([6]; average of autumn and spring) of the same compound?
A: The value was 16%.

Q: And the “Increase in pasture yields” value ([6]; autumn urine treatments, average)?
A: The value was 49%.

Q: And the “Increase in pasture yields” value ([6]; spring urine treatments)?
A: Its value is 17.5%.

Q: What about the “Increase in pasture N off-take” value ([6]; spring urine treatments) of the same compound?
A: The value was 9%.

Q: What about the “Annual average increase in pasture production” value ([6]; treating the whole surface area with DCD) of the same compound?
A: Its value is “more than 15%”.

Q: What about the Pasture production ([6]; with DCD, 11.4 without DCD) of the same compound?
A: Its Pasture production is 15.0 t ha−1 y−1.

Q: What about the “Paddock averaged pasture yield” value (grazed dairy pasture; field plots, Temuka soil, calculated paddock average, with DCD, 11.1 without DCD) of the same compound?
A: The value was 13.0 t ha−1 y−1.

Q: What about the Pasture yield (grazed dairy pasture; field plots, Temuka soil, non-urine patch areas, 10.3 without DCD) of the same compound?
A: The Pasture yield was 12.3 t ha−1 y−1.

Q: What about the Pasture yield (grazed dairy pasture; field plots, Temuka soil, urine patch areas, 13.4 without DCD) of the same compound?
A: Its Pasture yield is 15.1 t ha−1 y−1.

Q: And the “Increase of pasture production from the whole of the grazed pasture” value (grazed dairy pasture; paddock average, Table 2)?
A: Its value is “more than 15%”.
